This test concerns the target NavSp pore (Ruegeria pomeroyi, UniProt Q6TMY8). To be noted: drug added to both sides of bilayer; 0.5 M NaCl, 10 mM HEPES, pH 7.4; room temperature; POPE:POPG 1:1.

Molecules are shown by their SMILES. pIC50: −log10 of the molar value.

NavSp pore, sequence (Q6TMY8 114-258 limits assumed): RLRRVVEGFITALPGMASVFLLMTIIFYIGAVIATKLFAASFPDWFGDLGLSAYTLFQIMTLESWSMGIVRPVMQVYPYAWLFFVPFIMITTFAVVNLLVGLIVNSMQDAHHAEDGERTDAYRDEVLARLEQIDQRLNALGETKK

On to `COC(=O)C1=C(C)NC(C)=C(C(=O)OC)C1c1ccccc1[N+](=O)[O-]` [nifedipine], for which the pIC50 is 5.53.
